This assay deals with PANC-1 cells. The experiment in a line: Cell Titer-Glo luminescent cell viability assay, in vitro compound screening against pancreatic cancer cell lines. The format is cell-based. The following applies: 24 and 48-hour post dosing; 10 nM, 100 nM, 1 μM, 10 μM, and 100 μM; n=4. The method, then: In vitro compound screening against pancreatic cancer cell lines for IC50 determination. […] ASPC-1, BXPC-3, MIA-PaCa-2, and PANC-1 cell lines were obtained from ATCC. […] It should be noted that PANC-1, MIA-PaCa-2 and BxPC-3 cell-lines are gemcitabine-resistant cell-lines.
The IC50 was calculated using the following Log (inhibitor) versus Response equation: Y=Bottom+(Top−Bottom)/(1+10^((X-Log IC50))). Representative data and calculated IC50 values using the assay for representative compounds are shown FIGS. 4-7.
(ATP-based viability assays read luminescence as a measure of living cells.)
Turning to glimepiride [Compound 8], the inhibition of cell-proliferation result is reported as “did not show any appreciable inhibition of cell-proliferation”.

For the molecule bentiromide [Compound 5], the inhibition of cell-proliferation entry is listed as “did not show any appreciable inhibition of cell-proliferation”.

Consider `CC1(C)O[C@@H]2C[C@H]3[C@@H]4CCC5=CC(=O)C=C[C@]5(C)[C@H]4[C@@H](O)C[C@]3(C)[C@]2(C(=O)CO)O1` [Compound 7, desonide], for which the inhibition of cell-proliferation result was “did not show any appreciable inhibition of cell-proliferation”.

For the origin of these results see patent publication US11667666B2, “Methods and compositions for treatment of cancer” (CFD Research Corporation, priority 2020, dated 2023).
